The test system of series [1] is myorelaxation induced by diazepam. Briefly: Antagonism of diazepam myorelaxation, traction test in mice. Format: in vivo. As to conditions: 15 min before diazepam 3 mg/kg i.p., test 60 min after product; for ED50: Mus musculus, 1 h, read-out: Antagonism of the myorelaxation, 50% effective dose (ED50). The procedure: (a) Myorelaxant properties.
The studies were carried out by means of the traction test (J. R. Boissier et al., Archives Internationales de Pharmacodynamie, 1961, 135, pages 29-49). This test determines the ability of mice, placed with the front paws on a horizontally stretched wire, to grip with the back paws. The animals which have not brought the back paws onto the wire in less than 5 seconds are considered to be in a state of myorelaxation.
The products are administered 15 minutes before the intraperitoneal injection of a dose of 3 mg/kg of diazepam and the test is performed 60 minutes after administration of the product to be studied. The study was carried out on groups of 10 mice per dose.

Series [2] concerns the target benzodiazepine receptor. Briefly: Displacement of tritiated flunitrazepam from the benzodiazepine receptor (synaptic preparations of rat brain). Type of series: binding. As to conditions: tritiated flunitrazepam (60 Ci/mM), 1.1 nM final, read-out: median effective concentration (IC50). The procedure: ABILITY OF THE DERIVATIVES TO DISPLACE TRITIATED FLUNITRAZEPAM FROM THE BENZODIAZEPINE RECEPTOR
The studies were carried out on synaptic preparations of rat brain in accordance with the method described by Squives and Braestrup (Nature, 1977, 266, pages 732 to 734) and Mohler and Okada (Science, 1977, 198, pages 849 to 851).
The tritiated flunitrazepam (60 Ci/mM) was used at a final concentration of 1.1 nM. The results obtained with various products of the invention are shown in Table III and are expressed as median effective concentration (IC50) in μM.

Series [3] in a line: Acute oral toxicity in female Charles River CD1 mice. As to conditions: mouse, in vivo, read-out: % toxicity (percentage of dead animals). The procedure: Finally, the products of the invention were studied for their toxicity.
The studies were carried out on groups of 5 female Charles River mice of the CD1 strain, weighing between 20 and 24 g. The products were administered orally, diluted in 5% gum arabic. The acute toxicity was recorded during the 72 hours following administration of the product.
The results below (percentage of dead animals) were obtained as a function of the dose administered.

Series [4] concerns food intake. Briefly: Food intake of fasted rats. Type of series: in vivo. As to conditions: 40 mg/kg orally, first hour. On the procedure:
Furthermore, the products according to the invention were studied for their ability to reduce the food intake of fasted rats.
The studies were carried out on isolated female rats (200 to 240 g) trained to consume their food during a period of 4 hours per day. On the day of the test, 60 minutes before the food is provided, the animals receive either the product to be studied or the vehicle of administration. The quantity of food ingested during the first hour is determined.
The values shown in the table are the mean values for groups of 6 rats.

For series [5], the system named is anxiolytic effect of diazepam. The series is described as follows: Antagonism of anxiolytic effect of diazepam, approach-avoidance conflict test in rats. Type of series: in vivo. The note with it: 60 min before diazepam 4 mg/kg i.p. The procedure: The studies were carried out on rats in the approach-avoidance conflict test (L. Cook and A. B. Davidson, Effects of behaviorally active drugs in a conflict-punishment procedure in rats. In: The Benzodiazepines, S. Garattini, E. Mussini and L. O. Randall, editors, Raven Press, New York, 1973, 327-345).
A representative product of the invention, SR 95 195, was administered intraperitoneally 60 minutes before an anxiolytic dose of diazepam (4 mg/kg i.p.). The test was performed 30 minutes after administration of the diazepam.

SMILES strings stand for the structures. Like-named read-outs stand apart in the source and are kept apart here.

On to `Cc1nnc2cc(-c3cccc(C(F)(F)F)c3)cnn12` [SR 95 533], for which the “Antagonism of the myorelaxation, effect (dose)” value in series [1] (at 100 mg/kg) was 100%. In addition, in series [2], the IC50 was determined as 0.0029 mM.
The ED50 is the dose at which the effect has come halfway, by size or by number of responders. In the case of `Cc1nnc2cc(-c3cccc(Cl)c3)cnn12` [SR 95 398], the median effective dose (ED50) in series [1] is 20 mg/kg. The mortality at 72 h in series [3] (250 mg/kg orally) and in series [3] (500 mg/kg orally) was 0% throughout. The IC50 in series [2] was 0.0026 mM.
`Clc1ccc(-c2nnc3cc(-c4ccccc4)cnn23)cc1` [SR 95 492]: the mortality at 72 h in series [3] (250 mg/kg orally) and in series [3] (500 mg/kg orally) was 0% in each case.
Turning to `Cc1nnc2cc(-c3ccccc3)cnn12` [SR 95 195], in series [4] (60 min before food, fasted female rats, mean, groups of 6), the “Food intake” value is given as 8.6 ± 1.5 g. Further, the “Food intake, % variation relative to the control animals” value in series [4] (p < 0.01, Student's test) was -51%. In addition, the “% antagonism (anxiolytic effect of diazepam)” value in series [5] (1.25 mg/kg i.p.) came out at 26%; in series [5] (6.25 mg/kg i.p.) it was 74%; in series [5] (25 mg/kg i.p.), 100%. Besides, the median effective dose (ED50) in series [1] was 26 mg/kg. In addition, the figures for the mortality at 72 h in series [3] (250 mg/kg orally), in series [3] (500 mg/kg orally) and in series [3] (1000 mg/kg orally) were 0%, 0% and 80%, respectively. Also, the IC50 in series [2] came to 0.009 mM.
On to `Cc1nnc2cc(-c3ccc(Cl)cc3)cnn12` [SR 95 369], for which the values for the mortality at 72 h in series [3] (250 mg/kg orally), in series [3] (500 mg/kg orally) and in series [3] (1000 mg/kg orally) were 0%, 100% and 100%, respectively.
In the case of `c1ccc(-c2cnn3c(-c4ccccc4)nnc3c2)cc1` [SR 95 494], the mortality at 72 h in series [3] (250 mg/kg orally) and in series [3] (500 mg/kg orally) was 0% throughout. Besides, the IC50 in series [2] is 0.05 mM.
Turning to `COc1ccc(-c2cnn3c(C)nnc3c2)cc1` [SR 95 287, 7-(4-Methoxyphenyl)-3-methyl-1,2,4-triazolo[4,3-b]pyridazine], the mortality at 72 h in series [3] (250 mg/kg orally), in series [3] (500 mg/kg orally) and in series [3] (1000 mg/kg orally) was 0% throughout.
Consider `Cc1nnc2cc(CCc3ccccc3)cnn12` [SR 95 410], for which the mortality at 72 h in series [3] (250 mg/kg orally), in series [3] (500 mg/kg orally) and in series [3] (1000 mg/kg orally) was 0% in each case.
In the case of `c1ccc(-c2cnn3cnnc3c2)cc1` [SR 95 194, 7-Phenyl-1,2,4-triazolo[4,3-b]pyridazine], the mortality at 72 h in series [3] (250 mg/kg orally) was found to be 0%; in series [3] (500 mg/kg orally), 0%; in series [3] (1000 mg/kg orally), 100%. For the same compound, the IC50 in series [2] came out at 0.049 mM.
Take `Cc1nnc2cc(Cc3ccccc3)cnn12` [SR 95 252]: the mortality at 72 h in series [3] (250 mg/kg orally) was determined as 0%; in series [3] (500 mg/kg orally), 0%; in series [3] (1000 mg/kg orally), 100%. For the same compound, the IC50 in series [2] was determined as 0.027 mM.
With `Cc1ccc(-c2cnn3c(C)nnc3c2)cc1` [SR 95 370], the mortality at 72 h in series [3] (250 mg/kg orally) came out at 40%; in series [3] (500 mg/kg orally), 100%; in series [3] (1000 mg/kg orally), 100%.
For `Cc1nnc2cc(-c3ccccc3Cl)cnn12` [SR 95 437], the mortality at 72 h in series [3] (250 mg/kg orally) and in series [3] (500 mg/kg orally) was 0% in each case.
In the case of `c1ccc(Cc2nnc3cc(-c4ccccc4)cnn23)cc1` [SR 95 491, 7-Phenyl-3-benzyl-1,2,4-triazolo[4,3-b]pyridazine], the IC50 in series [2] stood at 0.0045 mM.

These data come from US4810705A, “Triazolo [3,4-b]pyridazines, process for their preparation and pharmaceutical compositions containing them” (priority 1984, dated 1989).
